Results: ChEMBL document CHEMBL1201861, “Genomics of Drug Sensitity in Cancer screening data, Wellcome Trust Sanger Institute”

Assays:
Assay in all cases: cells
Type in all cases: functional, cell-based, Homo sapiens
OCUB-M = test system: OCUB-M;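 also: growth inhibition of the cancer cell line, read out through a cell viability assay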
Description: SANGER: Inhibition of human OCUB-M cell growth in a cell viability assay.

IST-MEL1 = test system: IST-MEL1;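 also: growth inhibition of the cell line, read out with a cell viability assay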
Description: SANGER: Inhibition of human IST-MEL1 cell growth in a cell viability assay.

MS-1 = test system: MS-1;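 also: growth inhibition of MS-1 cells, read out by cell viability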
Description: SANGER: Inhibition of human MS-1 cell growth in a cell viability assay.

SF-539 = test system: SF-539;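 also: Read-out is a cell viability assay, with IC50 reflecting inhibition of cell growth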
Description: SANGER: Inhibition of human SF539 cell growth in a cell viability assay.

LB771-HNC = test system: LB771-HNC;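 also: growth inhibition of LB771-HNC human cells, read out with a cell viability assay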
Description: SANGER: Inhibition of human LB771-HNC cell growth in a cell viability assay.

NOMO-1 = test system: NOMO-1;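 also: growth inhibition of human NOMO-1 cells measured by a cell viability assay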
Description: SANGER: Inhibition of human NOMO-1 cell growth in a cell viability assay.

EW-13 = conditions: ew-13;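 also: growth inhibition of EW-13 cells, read out with a cell viability assay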
Description: SANGER: Inhibition of human EW-13 cell growth in a cell viability assay.

KG-1 = test system: KG-1;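 also: growth inhibition of KG-1 cells, read out by a cell viability assay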
Description: SANGER: Inhibition of human KG-1 cell growth in a cell viability assay.

8-MG-BA = test system: 8-MG-BA;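 also: growth inhibition of 8-MG-BA cells, read out with a cell viability assay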
Description: SANGER: Inhibition of human 8-MG-BA cell growth in a cell viability assay.

SF-268 = test system: SF-268;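 also: growth inhibition of SF-268 cells determined with a cell viability assay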
Description: SANGER: Inhibition of human SF268 cell growth in a cell viability assay.

QIMR-WIL = test system: QIMR-WIL;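 also: growth inhibition of QIMR-WIL cells, read out with a cell viability assay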
Description: SANGER: Inhibition of human QIMR-WIL cell growth in a cell viability assay.

CAS-1 = test system: CAS-1;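 also: growth inhibition of CAS-1 cells, measured with a cell viability assay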
Description: SANGER: Inhibition of human CAS-1 cell growth in a cell viability assay.

RPMI-8866 = test system: RPMI-8866
Description: SANGER: Inhibition of human RPMI-8866 cell growth in a cell viability assay.

U-266 = test system: U-266
Description: SANGER: Inhibition of human U-266 cell growth in a cell viability assay.

RS4-11 = test system: RS4-11;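 also: growth inhibition of RS4-11 cells, read out by a cell viability assay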
Description: SANGER: Inhibition of human RS4-11 cell growth in a cell viability assay.

TE-6 = test system: TE-6;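 also: growth inhibition of TE-6 cells, read out with a cell viability assay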
Description: SANGER: Inhibition of human TE-6 cell growth in a cell viability assay.

RXF 393 = test system: RXF 393;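 also: growth inhibition of human RXF 393 cells, read out with a cell viability assay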
Description: SANGER: Inhibition of human RXF393 cell growth in a cell viability assay.

HCE-T = test system: HCE-T;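 also: cell viability assay read-out, reporting inhibition of HCE-T cell growth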
Description: SANGER: Inhibition of human HCE-T cell growth in a cell viability assay.

BB30-HNC = test system: BB30-HNC;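 also: growth inhibition of the cultured cell line, read out by a cell viability assay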
Description: SANGER: Inhibition of human BB30-HNC cell growth in a cell viability assay.

NB10 = test system: NB10;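 also: growth inhibition of NB10 cells, read out by a cell viability assay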
Description: SANGER: Inhibition of human NB10 cell growth in a cell viability assay.

LS-1034 = test system: LS-1034
Description: SANGER: Inhibition of human LS-1034 cell growth in a cell viability assay.

LS-513 = test system: LS-513
Description: SANGER: Inhibition of human LS-513 cell growth in a cell viability assay.

JVM-2 = test system: JVM-2;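 also: growth inhibition of JVM-2 cells determined by a cell viability assay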
Description: SANGER: Inhibition of human JVM-2 cell growth in a cell viability assay.

KE-37 = test system: KE-37;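 also: growth inhibition of KE-37 cells, read out with a cell viability assay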
Description: SANGER: Inhibition of human KE-37 cell growth in a cell viability assay.

A4-Fuk = test system: A4-Fuk;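 also: growth inhibition of A4-Fuk cells, read out by a cell viability assay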
Description: SANGER: Inhibition of human A4-Fuk cell growth in a cell viability assay.

KURAMOCHI = test system: KURAMOCHI;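 also: growth inhibition of KURAMOCHI cells, read out with a cell viability assay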
Description: SANGER: Inhibition of human KURAMOCHI cell growth in a cell viability assay.

KNS-81-FD = test system: KNS-81-FD;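 also: growth inhibition of KNS-81-FD cells, read out with a cell viability assay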
Description: SANGER: Inhibition of human KNS-81-FD cell growth in a cell viability assay.

ES6 = test system: ES6;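 also: growth inhibition of human ES6 cells, read out with a cell viability assay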
Description: SANGER: Inhibition of human ES6 cell growth in a cell viability assay.

NOS-1 = test system: NOS-1;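 also: growth inhibition of the human NOS-1 cell line, read out with a cell viability assay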
Description: SANGER: Inhibition of human NOS-1 cell growth in a cell viability assay.

SCH = test system: SCH;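 also: growth inhibition of human SCH cells, read out in a cell viability assay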
Description: SANGER: Inhibition of human SCH cell growth in a cell viability assay.

LU-134-A = test system: LU-134-A
Description: SANGER: Inhibition of human LU-134-A cell growth in a cell viability assay.

TGBC1TKB = test system: TGBC1TKB;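 also: growth inhibition of TGBC1TKB cells, read out by a cell viability assay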
Description: SANGER: Inhibition of human TGBC1TKB cell growth in a cell viability assay.

NCI-H1650 = test system: NCI-H1650;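 also: growth inhibition of human NCI-H1650 cells measured by a cell viability assay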
Description: SANGER: Inhibition of human NCI-H1650 cell growth in a cell viability assay.

COLO-668 = test system: COLO-668
Description: SANGER: Inhibition of human COLO-668 cell growth in a cell viability assay.

ETK-1 = test system: ETK-1;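 also: growth inhibition of human ETK-1 cells, read out with a cell viability assay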
Description: SANGER: Inhibition of human ETK-1 cell growth in a cell viability assay.

DSH1 = test system: DSH1;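 also: growth inhibition of human DSH1 cells, measured with a cell viability readout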
Description: SANGER: Inhibition of human DSH1 cell growth in a cell viability assay.

SK-MEL-1 = test system: SK-MEL-1;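 also: growth inhibition of human SK-MEL-1 cells, read out by a cell viability assay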
Description: SANGER: Inhibition of human SK-MEL-1 cell growth in a cell viability assay.

NCI-H1770 = test system: NCI-H1770;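 also: growth inhibition of NCI-H1770 cells determined with a viability readout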
Description: SANGER: Inhibition of human NCI-H1770 cell growth in a cell viability assay.

NCI-H82 = conditions: nci-h82;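 also: growth inhibition of NCI-H82 cells, measured with a cell viability readout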
Description: SANGER: Inhibition of human NCI-H82 cell growth in a cell viability assay.

MOLT-4 = test system: MOLT-4;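 also: growth inhibition of MOLT-4 cells, determined with a cell viability readout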
Description: SANGER: Inhibition of human MOLT-4 cell growth in a cell viability assay.

NCI-H1395 = test system: NCI-H1395;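 also: cell viability assay read-out quantifying reduced proliferation of human NCI-H1395 cells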
Description: SANGER: Inhibition of human NCI-H1395 cell growth in a cell viability assay.

KM-H2 = target: KM-H2;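 also: growth inhibition of KM-H2 cells, read out by a cell viability assay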
Description: SANGER: Inhibition of human KM-H2 cell growth in a cell viability assay.

BB49-HNC = test system: BB49-HNC;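 also: cell viability assay read-out, reported as inhibition of BB49-HNC cell growth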
Description: SANGER: Inhibition of human BB49-HNC cell growth in a cell viability assay.

KARPAS-45 = test system: KARPAS-45;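 also: inhibition of cell line growth, read out through a viability assay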
Description: SANGER: Inhibition of human KARPAS-45 cell growth in a cell viability assay.

HCE-4 = test system: HCE-4;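 also: cell viability assay measuring inhibition of growth in the human HCE-4 cell line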
Description: SANGER: Inhibition of human HCE-4 cell growth in a cell viability assay.

COLO-829 = test system: COLO-829
Description: SANGER: Inhibition of human COLO-829 cell growth in a cell viability assay.

Mo = test system: Mo
Description: SANGER: Inhibition of human Mo-T cell growth in a cell viability assay.

EW-24 = conditions: Homo sapiens, EW-24;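 also: human EW-24 cancer cell line, growth inhibition read out via a cell viability assay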
Description: SANGER: Inhibition of human EW-24 cell growth in a cell viability assay.

Work on CISPLATIN yielded an IC50 (OCUB-M; ocub-m) of 22.7 µM, an IC50 (IST-MEL1; ist-mel1) of 9.38 µM and an IC50 (MS-1; ms-1) of 14.1 µM. It also gave an IC50 (SF-539; sf-539) of 3.53 µM, an IC50 (LB771-HNC; lb771-hnc) of 89.8 µM and an IC50 (NOMO-1; nomo-1) of 123 µM. It also gave an IC50 (EW-13) of 4.17 µM, an IC50 (KG-1; kg-1) of 3.63 µM and an IC50 (8-MG-BA; 8-mg-ba) of 5.38 µM. The IC50 (SF-268; sf-268) was 5.12 µM, the IC50 (QIMR-WIL; qimr-wil) was 29.3 µM and the IC50 (CAS-1; cas-1) was 116 µM. It also gave an IC50 (RPMI-8866; rpmi-8866) of 13.2 µM, an IC50 (U-266; u-266) of 154 µM and an IC50 (RS4-11; rs4-11) of 5.57 µM. For the same molecule, the IC50 (TE-6; te-6) was 57.3 µM, the IC50 (RXF 393; rxf 393) was 7.86 µM and the IC50 (HCE-T; hce-t) was 7.9 µM. For the same molecule, the IC50 (BB30-HNC; bb30-hnc) was 24.5 µM, the IC50 (NB10; nb10) was 11.5 µM and the IC50 (LS-1034; ls-1034) was 22.7 µM. It also gave an IC50 (LS-513; ls-513) of 61.6 µM, an IC50 (JVM-2; jvm-2) of 568 µM and an IC50 (KE-37; ke-37) of 31.5 µM. It also gave an IC50 (A4-Fuk; a4-fuk) of 47.5 µM, an IC50 (KURAMOCHI; kuramochi) of 159 µM and an IC50 (KNS-81-FD; kns-81-fd) of 535 µM. It also gave an IC50 (ES6; es6) of 21.3 µM, an IC50 (NOS-1; nos-1) of 147 µM and an IC50 (SCH; sch) of 13.2 µM. The IC50 (LU-134-A; lu-134-a) was 3.94 µM, the IC50 (TGBC1TKB; tgbc1tkb) was 82.6 µM and the IC50 (NCI-H1650; nci-h1650) was 19 µM. The IC50 (COLO-668; colo-668) was 103 µM, the IC50 (ETK-1; etk-1) was 49.8 µM and the IC50 (DSH1; dsh1) was 145 µM. For the same molecule, the IC50 (SK-MEL-1; sk-mel-1) was 14.7 µM, the IC50 (NCI-H1770; nci-h1770) was 417 µM and the IC50 (NCI-H82) was 74.9 µM. It also gave an IC50 (MOLT-4; molt-4) of 88.8 µM, an IC50 (NCI-H1395; nci-h1395) of 43.4 µM and an IC50 (KM-H2; km-h2) of 450 µM. It also gave an IC50 (BB49-HNC; bb49-hnc) of 48.2 µM, an IC50 (KARPAS-45; karpas-45) of 361 µM and an IC50 (HCE-4; hce-4) of 9.36 µM. The IC50 (COLO-829; colo-829) was 7.27 µM and the IC50 (Mo; mo) was 892 µM.
`CC(C)c1ccccc1Cc1cc(C(=O)Nc2ccc(S(=O)(=O)c3ccccc3C(C)(C)C)cc2)c(O)c(O)c1O` was tested, and the IC50 (OCUB-M; Homo sapiens, OCUB-M) was 0.243 µM, the IC50 (IST-MEL1; Homo sapiens, IST-MEL1) was 0.228 µM and the IC50 (SF-539; Homo sapiens, SF-539) was 0.47 µM. For the same molecule, the IC50 (LB771-HNC; Homo sapiens, LB771-HNC) was 0.166 µM, the IC50 (8-MG-BA; Homo sapiens, 8-MG-BA) was 0.154 µM and the IC50 (SF-268; Homo sapiens, SF-268) was 0.272 µM. It also gave an IC50 (CAS-1; Homo sapiens, CAS-1) of 2.78 µM, an IC50 (TE-6; Homo sapiens, TE-6) of 24.5 µM and an IC50 (RXF 393; Homo sapiens, RXF 393) of 1.21 µM. For the same molecule, the IC50 (HCE-T; Homo sapiens, HCE-T) was 0.231 µM, the IC50 (BB30-HNC; Homo sapiens, BB30-HNC) was 0.162 µM and the IC50 (NB10; Homo sapiens, NB10) was 0.215 µM. For the same molecule, the IC50 (LS-1034; Homo sapiens, LS-1034) was 1.36 µM, the IC50 (LS-513; Homo sapiens, LS-513) was 0.607 µM and the IC50 (KURAMOCHI; Homo sapiens, KURAMOCHI) was 1.94 µM. The IC50 (KNS-81-FD; Homo sapiens, KNS-81-FD) was 0.248 µM, the IC50 (ES6; Homo sapiens, ES6) was 0.373 µM and the IC50 (NOS-1; Homo sapiens, NOS-1) was 0.235 µM. For the same molecule, the IC50 (SCH; Homo sapiens, SCH) was 0.367 µM, the IC50 (TGBC1TKB; Homo sapiens, TGBC1TKB) was 1.13 µM and the IC50 (NCI-H1650; Homo sapiens, NCI-H1650) was 4.92 µM. The IC50 (COLO-668; Homo sapiens, COLO-668) was 5.1 µM, the IC50 (ETK-1; Homo sapiens, ETK-1) was 0.788 µM and the IC50 (DSH1; Homo sapiens, DSH1) was 0.517 µM. It also gave an IC50 (NCI-H1395; Homo sapiens, NCI-H1395) of 0.612 µM, an IC50 (BB49-HNC; Homo sapiens, BB49-HNC) of 2.01 µM and an IC50 (HCE-4; Homo sapiens, HCE-4) of 0.469 µM. The IC50 (COLO-829; Homo sapiens, COLO-829) was 0.701 µM.
Molecule `CN(C)C(=N)NC(=N)N` [METFORMIN] has an IC50 (OCUB-M; Homo sapiens, OCUB-M) of 11400 µM, an IC50 (IST-MEL1; Homo sapiens, IST-MEL1) greater than 20000 µM and an IC50 (MS-1; Homo sapiens, MS-1) greater than 20000 µM. It also gave an IC50 (SF-539; Homo sapiens, SF-539) greater than 20000 µM, an IC50 (LB771-HNC; Homo sapiens, LB771-HNC) greater than 20000 µM and an IC50 (NOMO-1; Homo sapiens, NOMO-1) greater than 20000 µM. It also gave an IC50 (KG-1; Homo sapiens, KG-1) of 16800 µM, an IC50 (EW-24) of 9450 µM and an IC50 (8-MG-BA; Homo sapiens, 8-MG-BA) greater than 20000 µM. The IC50 (SF-268; Homo sapiens, SF-268) was greater than 20000 µM, the IC50 (QIMR-WIL; Homo sapiens, QIMR-WIL) was greater than 20000 µM and the IC50 (RPMI-8866; Homo sapiens, RPMI-8866) was 9030 µM. The IC50 (U-266; Homo sapiens, U-266) was greater than 20000 µM, the IC50 (RS4-11; Homo sapiens, RS4-11) was greater than 20000 µM and the IC50 (TE-6; Homo sapiens, TE-6) was 14200 µM. For the same molecule, the IC50 (RXF 393; Homo sapiens, RXF 393) was greater than 20000 µM, the IC50 (BB30-HNC; Homo sapiens, BB30-HNC) was 10800 µM and the IC50 (LS-1034; Homo sapiens, LS-1034) was greater than 20000 µM. It also gave an IC50 (LS-513; Homo sapiens, LS-513) greater than 20000 µM, an IC50 (JVM-2; Homo sapiens, JVM-2) greater than 20000 µM and an IC50 (KE-37; Homo sapiens, KE-37) of 7490 µM. It also gave an IC50 (A4-Fuk; Homo sapiens, A4-Fuk) greater than 20000 µM, an IC50 (KURAMOCHI; Homo sapiens, KURAMOCHI) greater than 20000 µM and an IC50 (KNS-81-FD; Homo sapiens, KNS-81-FD) of 8880 µM. The IC50 (ES6; Homo sapiens, ES6) was greater than 20000 µM, the IC50 (NOS-1; Homo sapiens, NOS-1) was greater than 20000 µM and the IC50 (SCH; Homo sapiens, SCH) was greater than 20000 µM. The IC50 (LU-134-A; Homo sapiens, LU-134-A) was 13000 µM, the IC50 (TGBC1TKB; Homo sapiens, TGBC1TKB) was greater than 20000 µM and the IC50 (COLO-668; Homo sapiens, COLO-668) was greater than 20000 µM. The IC50 (ETK-1; Homo sapiens, ETK-1) was 14100 µM, the IC50 (DSH1; Homo sapiens, DSH1) was greater than 20000 µM and the IC50 (SK-MEL-1; Homo sapiens, SK-MEL-1) was 11800 µM. The IC50 (NCI-H1770; Homo sapiens, NCI-H1770) was 4100 µM, the IC50 (MOLT-4; Homo sapiens, MOLT-4) was greater than 20000 µM and the IC50 (NCI-H1395; Homo sapiens, NCI-H1395) was greater than 20000 µM. The IC50 (KM-H2; Homo sapiens, KM-H2) was 18700 µM, the IC50 (BB49-HNC; Homo sapiens, BB49-HNC) was greater than 20000 µM and the IC50 (KARPAS-45; Homo sapiens, KARPAS-45) was 3050 µM. For the same molecule, the IC50 (HCE-4; Homo sapiens, HCE-4) was 11000 µM, the IC50 (COLO-829; Homo sapiens, COLO-829) was greater than 20000 µM and the IC50 (Mo; Homo sapiens, Mo) was greater than 20000 µM.
